Entries after “also recorded” stand apart in the source; their conditions may differ.
Tests used:
SNI mice = test: Spared nerve injury (SNI) model of chronic neuropathic pain, von Frey assay; format: in vivo
Source text: As outlined above, the spared nerve injury (SNI) model (see FIG. 1) involves a lesion of two of the three terminal branches of the sciatic nerve (tibial and common peroneal nerves) of experimental animals, leaving the sural nerve intact. SNI results in mechanical and thermal allodynia in the non-injured sural nerve skin territory (Decosterd & Woolf, Pain 2000; 87:149-158; Tsujino et al., Mol. Cel. Neurosci. 2000; 15:170-182).
Wildtype mice (strain C3HeB/FeJ) (age, sex and weight matched) were anesthetized with Hypnorm (0.315 mg/ml fentanyl citrate+10 mg/ml fluanisone; Janssen)/Hypnovel (5 mg/ml midazolam; Roche Applied Sciences)/water at a ratio of 1:1:2 at 4 μl/g prior to surgical preparation.
Subsequently, an incision was made under aseptic precautions in the ipsi-lateral right hind leg of all mice just above the level of the knee, exposing the three terminal branches of the sciatic nerve: the common peroneal, tibial, and sural nerves. The common peroneal and tibial nerves were ligated tightly with 7/0 silk and sectioned distal to the ligation removing ≈2 mm of distal nerve stump. The sural branch remained untouched during the procedure (denoted herein “SNI ipsi”). The overlying muscle and skin was sutured, and the animals were allowed to recover and to permit wound healing. In the same mice, the sciatic nerve branches of the contra-lateral left hind leg were exposed but not lesioned (denoted herein “SNI contra-lateral”). Mice that underwent spared nerve injury are hereinafter denoted “SNI mice”.
After recovery from surgery and wound healing, SNI mice received intraperitoneal (i.p.) injections of CDK-inhibiting compounds. In particular, compound A and B as disclosed herein, belonging to the class of 4,6-disubstituted aminopyrimidine derivatives as described in WO2005/026129 were administered. […]
Injection of inhibitor or vehicle, and subsequent measurements of paw withdrawal threshold upon mechanical stimulation in von Frey assays were performed at day 0, day 7, day 21 and day 28 post SNI. Reflex nociceptive responses to mechanical stimulation were measured in a von Frey assay 30 min after each injection. An additional von Frey measurement was performed at day 14, but without prior injection of compound or vehicle.
Mice which underwent SNI and subsequent administration of the CDK-inhibiting compounds of the present invention were tested for signs of mechanical allodynia post nerve injury and post administration in a von Frey assay (Decosterd and Woolf, Pain 2000; 87:149-158). This assay determines the mechanical threshold upon which a stimulus, which normally is not painful, is recognized by an animal as uncomfortable or painful. SNI ipsi and SNI contra baselines, respectively, were established.
Mechanical thresholds of SNI mice were quantified using the up-down method based on Chaplan et al. (1994) and Malmberg and Basbaum (1998):
Mice were placed in plexiglass cylinders of about 9.5 cm in diameter, 14 cm high with four vent holes towards the top and a Plexiglas lid. The cylinders were placed on an elevated mesh surface (7×7 mm squares). Prior to the day of testing, the mice were adapted to the testing cylinders for 1-2 hours. On the day of testing the mice were adapted to the cylinders for about an hour, wherein the adaptation time depends on factors such as the strain of the mouse and the number of times they have been tested previously. In general, testing may begin once the mice are calm and stop exploring the new environment.
For testing mice, filaments 2.44, 2.83, 3.22, 3.61, 3.84, 4.08, and 4.31 (force range=0.04 to 2.0 g) were used. The […] filament was applied first. Said filament was gently applied to the plantar surface of one paw, allowed to bend, and held in position for 2-4 seconds. Whenever a positive response to the stimulus (flexion reaction) occurred, the next weaker von Frey filament was applied; whenever a negative response (no reaction) occurred, the next stronger force was applied. […]

CDK7/CycH/MAT1 = molecular target: T1, CDK7/CycH/MAT1 (Homo sapiens, UniProt P50613); test: In vitro kinase inhibition assay, CDK7/CycH/MAT1; format: biochemical
T1 construct: made in house; host or cells: Sf9 insect cells, baculovirus
T1 sequence (P50613 whole entry): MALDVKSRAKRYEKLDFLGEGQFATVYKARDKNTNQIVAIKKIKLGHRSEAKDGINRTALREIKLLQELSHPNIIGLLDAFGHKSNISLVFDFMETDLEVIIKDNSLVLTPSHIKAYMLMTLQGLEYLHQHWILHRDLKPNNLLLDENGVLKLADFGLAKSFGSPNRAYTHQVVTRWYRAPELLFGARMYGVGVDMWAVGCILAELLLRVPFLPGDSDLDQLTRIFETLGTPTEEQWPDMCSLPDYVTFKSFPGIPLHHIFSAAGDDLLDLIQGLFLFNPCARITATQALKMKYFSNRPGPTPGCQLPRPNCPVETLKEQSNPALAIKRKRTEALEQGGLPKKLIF
T1 sequence (P51946 whole entry partner): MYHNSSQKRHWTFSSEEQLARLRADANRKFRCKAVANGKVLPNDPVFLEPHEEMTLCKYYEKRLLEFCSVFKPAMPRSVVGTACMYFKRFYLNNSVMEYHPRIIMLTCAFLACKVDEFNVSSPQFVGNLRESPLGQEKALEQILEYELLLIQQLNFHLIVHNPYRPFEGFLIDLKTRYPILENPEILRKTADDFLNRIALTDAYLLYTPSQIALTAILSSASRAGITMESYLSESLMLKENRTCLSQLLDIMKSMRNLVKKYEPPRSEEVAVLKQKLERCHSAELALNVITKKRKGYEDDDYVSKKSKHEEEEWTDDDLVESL
T1 sequence (P51948 whole entry partner): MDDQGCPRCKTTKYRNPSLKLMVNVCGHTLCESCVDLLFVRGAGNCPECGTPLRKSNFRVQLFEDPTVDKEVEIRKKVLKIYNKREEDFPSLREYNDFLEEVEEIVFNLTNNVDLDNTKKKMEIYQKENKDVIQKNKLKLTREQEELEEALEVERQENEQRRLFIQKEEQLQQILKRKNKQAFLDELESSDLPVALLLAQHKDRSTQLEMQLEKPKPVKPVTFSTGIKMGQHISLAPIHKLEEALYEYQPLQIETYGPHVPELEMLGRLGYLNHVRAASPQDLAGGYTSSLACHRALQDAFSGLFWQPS

formalin-treated mice = test: Formalin assay, licking behaviour; format: in vivo; settings: 30 mg/kg i.p. 30 min before formalin injection
Method: The formalin assay in mice is a valid and reliable behavioral model of nociception and is sensitive to various classes of analgesic drugs (Hunskaar S & Hole K, Pain. 1987, 30(1):103-14.) The noxious stimulus consists of a subcutaneous or an intraplantar injection of 10 μl diluted formalin (2% in saline) into the left hind paw. The response is licking and flinching of the injected paw.
Age, sex and weight matched wildtype mice (C3HeB/FeJ) were used in this assay. Prior to formalin injection, the animals were randomly subdivided into experimental groups of 10 animals each. […]
For formalin injection, the mouse was held with a paper towel in order to avoid disturbance of the injection by movements. […] The behavior of the formalin- and CDK-inhibitor-treated mice was analyzed as described below.
The behaviour of the formalin-treated mice, i.e. licking and flinching, was monitored by an automated tracking system (Ethovision 3.0 Color Pro, Noldus, Wageningen, Netherlands) over a defined period of time: measurement was initiated 5 min after formalin injection and terminated 30 min after formalin injection. […]
As another possibility of assay read-out, the licking behaviour of the individual animals was tracked manually based on video files. Licking times were recorded over 30 minutes after formalin injection and subdivided for three different licking zones (dorsum, plantar, toes). […]

CDK3/CycE = molecular target: T2, CDK3/CycE (Homo sapiens, UniProt Q00526); test: In vitro kinase inhibition assay, CDK3/CycE; format: biochemical
T2 construct: made in house; host or cells: Sf9 insect cells, baculovirus
T2 sequence (Q00526 whole entry): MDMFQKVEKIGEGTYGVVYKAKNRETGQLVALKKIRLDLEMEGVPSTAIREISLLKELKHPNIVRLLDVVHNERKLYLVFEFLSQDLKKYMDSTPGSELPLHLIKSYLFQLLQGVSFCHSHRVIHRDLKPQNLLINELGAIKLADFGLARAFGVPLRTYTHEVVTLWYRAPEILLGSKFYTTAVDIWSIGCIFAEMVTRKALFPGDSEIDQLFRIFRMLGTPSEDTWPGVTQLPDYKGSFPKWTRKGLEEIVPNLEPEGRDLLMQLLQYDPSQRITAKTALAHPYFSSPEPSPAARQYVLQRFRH
T2 sequence (P24864 whole entry partner): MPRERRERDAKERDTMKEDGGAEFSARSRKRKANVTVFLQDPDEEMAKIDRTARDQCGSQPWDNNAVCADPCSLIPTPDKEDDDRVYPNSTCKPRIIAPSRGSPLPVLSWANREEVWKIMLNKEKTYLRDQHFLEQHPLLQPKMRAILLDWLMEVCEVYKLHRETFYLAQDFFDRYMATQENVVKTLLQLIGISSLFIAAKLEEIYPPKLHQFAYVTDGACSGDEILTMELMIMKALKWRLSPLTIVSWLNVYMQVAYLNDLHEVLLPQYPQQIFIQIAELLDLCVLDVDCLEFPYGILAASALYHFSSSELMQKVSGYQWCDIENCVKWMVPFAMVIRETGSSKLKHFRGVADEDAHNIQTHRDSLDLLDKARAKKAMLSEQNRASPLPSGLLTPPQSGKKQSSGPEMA

IC50 (CDK7/CycH/MAT1): 10 µM | IC50 (CDK3/CycE): 18.5 µM
SMILES: COc1ccccc1-c1cc(Nc2cccc(S(N)(=O)=O)c2)ncn1 [Compound A]
effect on von Frey mechanical threshold (SNI mice; 30 mg/kg at midnight and 8.00 a.m., measured 8.30 a.m., day 28 post SNI): significant increases in thresholds | effect on SNI-induced allodynia (von Frey) (SNI mice; 30 mg/kg i.p. 30 minutes before von Frey testing): hypoalgesic effect | effect on von Frey mechanical threshold (SNI mice; 30 mg/kg i.p. 30 minutes prior to measurements, day 21 post SNI): significant increase of threshold values | effect on von Frey mechanical threshold (SNI mice; 30 mg/kg i.p., day 7 post SNI): does not show any effect | average von Frey threshold value, contra-lateral paw (SNI mice; 30 mg/kg i.p., day 21 and 28): ~0.4 g | average von Frey threshold value, ipsi-lateral paw (SNI mice; 30 mg/kg i.p., day 21 and 28): ~0.3 g | fluorescent dot size of the formalin-treated paw (formalin-treated mice): no significant reduction of fluorescent dot size | licking time (formalin-treated mice; vs vehicle, 30 mg/kg): reduction in licking time; also recorded: clearly reduced
